Legend:
certain wounds = assay: Effect of unsaturated fatty acids on wounds; set-up: species or system patients; details: in vivo
wounds and skin damage = assay: Treatment effect of palmitic acid and behenic acid alone versus combined

inflammation to certain wounds, causing pain in some patients (certain wounds)	SMILES	treatment effect of either acid alone (wounds and skin damage)
harmful inflammation	CCCCC/C=C\C/C=C\C/C=C\C/C=C\CCCC(=O)O [arachidonic acid]	–
–	CCCCCCCCCCCCCCCCCCCCCC(=O)O [behenic acid]	less significant
harmful inflammation	CCCCC/C=C\C/C=C\CCCCCCCC(=O)O [linoleic acid]	–
–	CCCCCCCCCCCCCCCC(=O)O [palmitic acid]	less significant

— patent US11696907B2, “Wound healing composition” (WINERGEN TECHNOLOGIES INC., LTD., priority 2016, dated 2023)
